Test results taken from patent US4551534A, “Aralkyl or aryloxyalkyl 1,7-naphthyridine-3-carboxylic acid esters” (American Home Products Corporation, priority 1984, dated 1985).

Legend:
[1] = test system: isolated paced intact rabbit atria; assay: Cardiac depressant (negative inotropic) effects in isolated paced intact rabbit atria; conditions: 3 Hz, 30° C., cumulative 10^-9 M to 10^-5 M
Experimental: (§1) The potential for detrimental cardiac depressant (negative inotropic) effects of the compounds of this invention was assessed in isolated paced intact rabbit atria. […] Muscles (N=5-9/compound) were stimulated at a frequency of 3 Hz with a WPI stimulator for a 60 minute equilibration period. Changes in isometric force were recorded as described for the aortic smooth muscle experiments,supra. […]

[2] = test system: spontaneously hypertensive rats; assay: Hypotensive in vivo effect: systolic blood pressure of spontaneously hypertensive rats; design: species or system rat; conditions: 50 mg/kg oral
[3] = test system: rabbit aortic smooth muscle; assay: Ca+2 antagonism: relaxation of KCl-depolarized rabbit aortic smooth muscle strips; conditions: Oryctolagus cuniculus, 20 min; 10^-5 M; 100 mM KCl contraction; mean of two experiments 20 minutes after addition; read-out: percent relaxation (P.R.)
Experimental: The composition of PSS was as follows (mM): NaCl 112, KCl 5, NaHCO3 25, KH2 PO4 1, MgSO4 1.2, CaCL2 2.5, dextrose 10. The lower end of each tissue strip was attached to a fixed post and the upper end to a Statham UC-4 transducer. Changes in force development were recorded on a Beckman Dynograph Polygraphic Recorder.
Following equilibration, the muscles were contracted in a depolarizing solution of PSS in which 100 mM KCl was substituted for an equimolar concentration of NaCl. Following attainment of steady-state isometric force (20 min.), the test compound was added to afford a final concentration of 1×10^-5 M. The inhibitory effect, expressed as percent relaxation, was determined from the mean of two experiments twenty minutes after the addition of the compound being tested.
(§2) The following examples illustrate the preparation of a representative number of compounds of this invention. After each example, the Ca^+2 antagonist activity of the compound is presented in terms of percent relaxation (P.R.) at 10^-5 M concentration unless indicated otherwise. Similarly, the antihypertensive activity is reported in terms of millimeters mercury (mmHg) blood pressure (B.P.) reduction at the stated time post 50 mg/kg oral dosing or other dosing as indicated.

[4] = test system: spontaneously hypertensive rats; assay: Hypotensive in vivo effect: systolic blood pressure of spontaneously hypertensive rats; design: species or system rat; conditions: 50 mg/kg oral, group of 4 spontaneously hypertensive rats
Experimental: The hypotensive in vivo effect of the compounds of this invention was determined by measuring changes in the systolic blood pressure of spontaneously hypertensive rats with a Decker Caudal Plethysmograph. The compound being tested was administered to a group of 4 rats and their systolic pressure was determined prior to and at 1.5 and 4 hours after compound administration. Initial testing was done by oral administration of the compound at a dose of 50 mg/kg body weight. Results (mmHg) are expressed as decreases in systolic blood pressure.
as §2

[5] = Cardiac depressant (negative inotropic) effects in isolated paced intact rabbit atria; conditions: isolated paced atria, 10^-5 M, read-out: inhibition (of developed isometric force) at the highest concentration
Experimental: as §1

Row | Structure (SMILES) | IC25 (concentration which produces 25% inhibition of isometric force) [1] | blood pressure (B.P.) reduction at 24 hours [2] | inhibition at 10 µM [3] | blood pressure (B.P.) reduction at 1.5 hours [4] | blood pressure (B.P.) reduction at 4 hours [4] | inhibition at 10 µM [5]
1 | COC(=O)C1=C(C)NC(C)=C(C(=O)OC)C1c1ccccc1[N+](=O)[O-] [nifedipine, reference compound] | 0.05 µM | – | – | – | – | –
2 | COC(=O)C1=C(C)NC2=C(C(=O)CN(CC(O)COc3cccc(C)c3C)C2)C1c1c(F)c(F)c(F)c(F)c1F (stereo not shown) [Example 2, 7-[3-(2,3-Dimethylphenoxy)-2-hydroxypropyl]-1,4,5,6,7,8-hexahydro-2-methyl-5-oxo-4-(pentafluorophenyl)-1,7-naphthyridine-3-carboxylic acid methyl ester] | 5 µM | -28 mmHg | 65% | -56 mmHg | -86 mmHg | –
3 | CCOC(=O)C1=C(C)NC(C)=C(C(=O)OC)C1c1cccc([N+](=O)[O-])c1 (stereo not shown) [nitrendipine, reference compound] | 0.35 µM | – | – | – | – | –
4 | NCCCCCCNS(=O)(=O)c1cccc2c(Cl)cccc12 [Example W-7, reference compound] | – | – | – | – | – | < 20%
5 | COc1ccc(CCN(C)CCCC(C#N)(c2ccc(OC)c(OC)c2)C(C)C)cc1OC (stereo not shown) [Verapamil, reference compound] | 0.06 µM | – | – | – | – | –
6 | COC(=O)C1=C(C)NC2=C(C(=O)CN(CC(O)COc3cccc(Cl)c3Cl)C2)C1c1ccccc1C (stereo not shown) [Example 5, 7-[3-(2,3-Dichlorophenoxy)-2-hydroxypropyl]-1,4,5,6,7,8-hexahydro-2-methyl-4-(2-methylphenyl)-5-oxo-1,7-naphthyridine-3-carboxylic acid methyl ester] | > 10 µM | – | 62% | -23 mmHg | -25 mmHg | –
7 | COC(=O)C1=C(C)NC2=C(C(=O)CN(CC(O)COc3cccc(C)c3C)C2)C1c1c(F)c(F)cc(F)c1F (stereo not shown) [Example 3] | 6 µM | – | 63% | -25 mmHg | -56 mmHg | –
8 | COC(=O)C1=C(C)NC2=C(C(=O)CN(CC(O)COc3ccccc3)C2)C1c1c(F)c(F)c(F)c(F)c1F (stereo not shown) [Example 6, 1,4,5,6,7,8-Hexahydro-2-methyl-5-oxo-4-(pentafluorophenyl)-7-(3-phenoxy-2-hydroxypropyl)-1,7-naphthyridine-3-carboxylic acid methyl ester] | 4.5 µM | – | 67% | -54 mmHg | -80 mmHg | –
9 | COC(=O)C1=C(C)NC2=C(C(=O)CN(CC(O)COc3cccc(C)c3C)C2)C1c1cccc(Cl)c1Cl (stereo not shown) [Example 8, 4-(2,3-Dichlorophenyl)-7-[3-(2,3-dimethylphenoxy)-2-hydroxypropyl]-1,4,5,6,7,8-hexahydro-2-methyl-5-oxo-1,7-naphthyridine-3-carboxylic acid methyl ester] | 7 µM | – | 50% | -16 mmHg | -41 mmHg | –
10 | COC(=O)C1=C(C)NC2=C(C(=O)CN(CC(O)COc3ccc(OC)cc3)C2)C1c1c(F)c(F)c(F)c(F)c1F (stereo not shown) [Example 7, 1,4,5,6,7,8-Hexahydro-7-[3-(4-methoxyphenoxy)-2-hydroxypropyl]-2-methyl-5-oxo-4-(pentafluorophenyl)-1,7-naphthyridine-3-carboxylic acid methyl ester] | 5 µM | – | 73% | -31 mmHg | -56 mmHg | –
11 | COC(=O)C1=C(C)NC2=C(C(=O)CN(CC(O)CCc3ccccc3)C2)C1c1c(F)c(F)c(F)c(F)c1F (stereo not shown) [Example 10, 1,4,5,6,7,8-Hexahydro-7-(2-hydroxy-4-phenylbutyl)-2-methyl-5-oxo-4-(pentafluorophenyl)-1,7-naphthyridine-3-carboxylic acid methyl ester] | 3 µM | – | 80.5% | -41 mmHg | -51 mmHg | –
12 | COC(=O)C1=C(C)NC2=C(C(=O)CN(CC(O)COc3cccc(C)c3C)C2)C1c1ccccc1C (stereo not shown) [Example 1, 7-[3-(2,3-Dimethylphenoxy)-2-hydroxypropyl]-1,4,5,6,7,8-hexahydro-2-methyl-4-(2-methylphenyl)-5-oxo-1,7-naphthyridine-3-carboxylic acid methyl ester] | > 10 µM | – | 91% | -30 mmHg | -34 mmHg | –
13 | COC(=O)C1=C(C)NC2=C(C(=O)CN(CC(O)COc3cccc(C)c3C)C2)C1c1c(F)ccc(Cl)c1Cl (stereo not shown) [Example 4, 4-(2,3-Dichloro-6-fluorophenyl)-7-[3-(2,3-dimethylphenoxy)-2-hydroxypropyl]1,4,5,6,7,8-hexahydro-2-methyl-5-oxo-1,7-naphthyridine-3-carboxylic acid methyl ester] | > 10 µM | – | 42% | -56 mmHg | -72 mmHg | –
14 | COC(=O)C1=C(C)NC2=C(C(=O)CN(CC(O)c3ccccc3)C2)C1c1c(F)c(F)c(F)c(F)c1F (stereo not shown) [Example 11, 1,4,5,6,7,8-Hexahydro-7-(2-hydroxy-2-phenylethyl)-2-methyl-5-oxo-4-pentafluorophenyl-1,7-naphthyridine-3-carboxylic acid methyl ester] | – | – | 66.5% | -58 mmHg | -73 mmHg | –
15 | CCOC(=O)C1=C(C)NC(C)=C(C(=O)OC)C1c1cccc(Cl)c1Cl (stereo not shown) [felodipine, reference compound] | 0.8 µM | – | – | – | – | –
16 | COC(=O)C1=C(C)NC2=C(C(=O)CN(CCCOc3ccccc3)C2)C1c1c(F)c(F)c(F)c(F)c1F (stereo not shown) [Example 9, 1,4,5,6,7,8-Hexahydro-2-methyl-5-oxo-4-(pentafluorophenyl)-7-(3-phenoxypropyl)-1,7-naphthyridine-3-carboxylic acid methyl ester] | 3.5 µM | – | 61% | -43 mmHg | -41 mmHg | –
